From US20130090471A1, “METHOD FOR DETECTING COMPOUNDS THAT MODULATE THE CHOLESTEROL METABOLISM” (priority 2010, published 2013)
Positions of bridges follow the written chain, without caps; N, C: chain ends. Non-standard residues stand in square brackets, D forms with d. Residues, ends and D or L forms follow the SMILES beside them. *: point of attachment. Asp(3S-OH) = N[C@H](C(=O)O)[C@H](O)C(=O)O; Thr(4-Cl) = N[C@H](C(=O)O)[C@H](O)CCl; X1 = CCCCCCCCC[C@@H](O)CC(=O)*; dDab = NCC[C@@H](N)C(=O)O; Dab = NCC[C@H](N)C(=O)O; Dhb = C/C=C(\N)C(=O)O

Tests used:
Assay type in all cases: cell-based, Saccharomyces cerevisae
[1] = tested on: yIM126-pIM580-CYP27A1 yeast; experiment: Test for restoration of growth on a YPG agar containing syringomycin E inoculated with a cholesterol-producing strain; settings: syringomycin E 250 ng/ml, 48 h to 72 h at 30° C.
Method: The yIM126 yeasts containing the expression plasmids for DHCR24 with or without P450 are cultured in YNB medium, 2% glucose, adenine at 100 μg/ml for 48 h at 30° C. and then in Käppeli medium for 24 h at 30° C. as described above.
(§1) The yeast suspensions are diluted to an optical density at 600 nm of 0.005 unit ( 1/200) in YNB medium in order to inoculate a YPG agar containing syringomycin E at a dose that is toxic for the strain, i.e. 160 ng/ml for yIM126 containing the pIM582 plasmid, or 250 ng/ml for the yIM126 strain containing the pIM580 plasmid.
The inoculation of the agar medium is carried out by flooding its surface and immediately suctioning off the excess liquid. Products of interest are deposited on the agar surface thus inoculated, and then dried. […] Similarly, this method makes it possible to identify activators of enzymes, such as cytochromes P450, for instance CYP27A1, which catabolize cholesterol.
FIG. 7: Test for restoration of growth on a YPG agar containing syringomycin E inoculated with a cholesterol-producing strain.
The surface of a YPG agar medium containing syringomycin E at 250 ng/ml is inoculated with a covering of yIM126-pIM580-CYP27A1 yeast suspension. […]

[2] = tested on: yIM126 containing the pIM582 plasmid (without P450); experiment: Growth of yeasts on YPG agar containing syringomycin E
Method: (§2) This culture medium is a rich medium of YPG agar type (YPG complete medium: yeast extract (Difco) 10 g/L, bactopeptone (Difco) 20 g/L, glucose (Merck) 20 g/L) supplemented with syringomycin E toxin from Pseudomonas syringae B-301D (Sigma #S6946) from 150 to 250 ng/ml.
(§3) The yIM126 yeast strains containing an expression vector for DHCR24 and cytochrome P450 such as pIM580, described previously, are cultured for 48 h with shaking at 30° C. in a YNB medium (yeast nitrogen base w/o amino acids (Difco) 6.7 g/L, glucose (Merck) 20 g/L) supplemented with 2% glucose and adenine at 100 μg/ml.
(§4) The culture reaches an optical density at 600 nm of about 7 units. The cell pellet is harvested by centrifugation and transferred into an identical volume of Käppeli medium containing […], 2% glucose and 100 μg/ml of adenine, and shaken at 30° C. for 24 h, reaching an optical density at 600 nm of about 40 units.
(§5) The cultures are diluted to 1 unit of optical density at 600 nm and then to 1/50 and then 25-fold dilutions in order to perform a drop test on YPG agars containing syringomycin E according to the methods known to those skilled in the art.
(§6) The toxicity of this YPG medium containing syringomycin E depends on the amount of cholesterol available in the yeast, observed by GC/FID or GC/MS.
as §1
(§7) FIG. 6: Test for growth of various strains producing and/or catabolizing cholesterol on a YPG agar containing syringomycin E (SRG): Yeast culture dilutions deposited on a YPG agar without syringomycin E(6A) or with syringomycin E at 170 ng/ml (6B); Dilution OD at 600 nm from top to bottom: 0.02/0.0008/[…].

[3] = tested on: yIM126 strain containing the pIM580 plasmid (with CYP27A1); experiment: as above
Method: as §2, §3, §4, §5, §6, §1, §7

[4] = 2 μl of product at 1 mM deposited
[5] = 2 μl of product at 0.1 mg/ml deposited
[6] = YPG agar, inoculated at OD 600 nm 0.005
[7] = syringomycin E at 170 ng/ml, 48 h to 72 h at 30° C.

With CCN(C/C=C\c1ccc(C2CCCCC2)c(Cl)c1)C1CCCCC1 [SR31747] the “restoration of growth (yeast growth halos around the deposits) on medium which is initially toxic” value (“restoration of growth” below) [1, 4] was “verified”.
In the case of CCC(C)(C)c1ccc(CC(C)CN2C[C@@H](C)O[C@@H](C)C2)cc1 (stereo partly drawn) [amorolfine], the “restoration of growth” value [1, 5] was “verified”.
With C[C@@H](CO)CCC[C@@H](C)[C@H]1CC[C@H]2[C@@H]3CC=C4C[C@@H](O)CC[C@]4(C)[C@H]3CC[C@]12C [27OH-cholesterol] the “area of protection with respect to the toxicity of the syringomycin E contained in the agar” value [1, 5] was “induces an area of protection”.
Clc1ccccc1CNCC1CCC(CNCc2ccccc2Cl)CC1 (stereo not drawn) [AY9944] was tested, and the “restoration of growth” value [1, 4] was “verified”.
For CC(C)CCC[C@@H](C)[C@H]1CC[C@H]2[C@@H]3CC=C4C[C@@H](O)CC[C@]4(C)[C@H]3CC[C@]12C [cholesterol], the “area of protection with respect to the toxicity of the syringomycin E contained in the agar” value [1, 5] was “induces an area of protection”.
With C/C=C1\NC(=O)[C@H](Cc2ccccc2)NC(=O)[C@H](CCCN=C(N)N)NC(=O)[C@@H](CCN)NC(=O)[C@H](CCN)NC(=O)[C@@H](CO)NC(=O)[C@@H](NC(=O)C[C@H](O)CCCCCCCCC)COC(=O)[C@H]([C@H](O)CCl)NC(=O)[C@H]([C@H](O)C(=O)O)NC1=O [syringomycin E] (X1-S[dS][Dab][dDab]RF[Dhb][Asp(3S-OH)][Thr(4-Cl)]; ester 1-C) the “dose that is toxic for the strain” value [2, 6] was 160 ng/mL, the “growth of the yeasts in drop test” value [2, 7] was “not capable of growing” and the “dose that is toxic for the strain” value [3, 6] was 250 ng/mL. For the same compound, the “growth of the yeasts in drop test” value [3, 7] was “capable of growing”.
